From PMC11555526, “Development of 2-Aminoadenine-Based Proteolysis-Targeting Chimeras (PROTACs) as Novel Potent Degraders of Monopolar Spindle 1 and Aurora Kinases” (ACS Pharmacology & Translational Science, 2024) come the findings set out here.

Each structure is given as a SMILES string. “And” between values parts separate entries of the source, which are not always exact repeats. Identical values can stand only once. Like-named read-outs stand apart in the source and are kept apart here.

In general, Dmax refers to the largest share of the target that was removed.

Experiment [1] concerns MV4-11 cells (naive). The experiment in a line: alamarBlue cell viability assay. The format is cell-based, human. As to conditions: 72 h treatment, MV4-11 cells (naive); for EC50: read-out: EC50 (concentration that decreases cell viability by 50%). As for the experimental part: Finally, to study the effect of the compounds on cancer cell survival, MV4-11 cells were treated with various concentrations of the chimeras and the cell viability was assessed after 72 h. […] As opposed to the parent inhibitor MPS1-IN-3, its derivatives except 40 were not cytotoxic (Figure S7B, Table 5). […] In addition, most of the SF1-based derivatives affected the viability of MV4-11 cells in nanomolar concentrations (Table 5).
For the alamarBlue cell viability assay, cells were seeded in 96-well plates and treated with indicated concentrations of the compounds or vehicle. A few hours before the experimental end point (72 h, unless otherwise stated), the cells were incubated with the alamarBlue reagent. Finally, fluorescence (excitation: 550 nm and emission: 600 nm) or absorbance (570 nm with reference at 600 nm) was measured on a Tecan Spark Multiplate reader (Tecan).
For orientation: Alamar Blue is a resazurin reagent that responds to reducing activity.

In experiment [2] the target is T1, AURKB (MV4-11^AURKB-HiBiT cells) (Homo sapiens, UniProt Q96GD4).
T1 construct: expressed in transfected cells; host or cells: MV4-11, lentiviral transduction (pRRL-PGK vector)
Put plainly: HiBiT assay, AURKB degradation. The format is cell-based. Also noted: key to Dmax (maximal degradation) AURKB: compounds with degradation less than 15% reported as “inactive”. As to conditions: 6 h treatment; for DC50: read-out: DC50 (half-maximal degradation concentration) AURKB. As for the experimental part:
(§1) The effects of the synthesized compounds on AURKA, AURKB, and TTK mitotic kinases were then assessed in cellular systems. For this, HiBiT cell lines were generated for all three mitotic kinases. A small 11 amino acid peptide fragment of luciferase (HiBiT) was fused to the coding sequence of the proteins and stably transduced in the MV4-11 cell line (MV4-11^AURKA-HiBiT, MV4-11^AURKB-HiBiT, and MV4-11^HiBiT-TTK).
(§2) The stable cell lines MV4-11^AURKA-HiBiT, MV4-11^AURKB-HiBiT, and MV4-11^HiBiT-TTK cells were generated by lentiviral infection. Lentivirus was produced using the respective HiBiT vector, plasmids psPAX2, and pMD2.G in HEK293 cells. The virus supernatant was filtered and MV4-11 cells were doubly infected with the supernatant. The cells were selected after 48 h of infection until the control cells were dead to get the stable cell line.
(§3) The cells stably expressing HiBiT-tagged protein were seeded into 96-well plates and treated with serial dilutions of compounds for the indicated time points. At the end point, the assay was performed using the Nano-Glo HiBiT Lytic Detection System (Promega) according to the manufacturer’s instruction. Luminescence was measured on a GloMax 96 Microplate Luminometer (Promega) or a Tecan Spark Multiplate reader (Tecan). DC50 was calculated using concentrations showing sigmoidal behavior with the dose–response (four parameters) equation in Prism (GraphPad).
In general terms: The HiBiT peptide binds its large partner to form an active luciferase.

The target of experiment [3] is T2, AURKA (MV4-11^AURKA-HiBiT cells) (Homo sapiens, UniProt O14965).
T2 construct: expressed in transfected cells; host or cells: MV4-11, lentiviral transduction
T2 sequence (O14965 1-403): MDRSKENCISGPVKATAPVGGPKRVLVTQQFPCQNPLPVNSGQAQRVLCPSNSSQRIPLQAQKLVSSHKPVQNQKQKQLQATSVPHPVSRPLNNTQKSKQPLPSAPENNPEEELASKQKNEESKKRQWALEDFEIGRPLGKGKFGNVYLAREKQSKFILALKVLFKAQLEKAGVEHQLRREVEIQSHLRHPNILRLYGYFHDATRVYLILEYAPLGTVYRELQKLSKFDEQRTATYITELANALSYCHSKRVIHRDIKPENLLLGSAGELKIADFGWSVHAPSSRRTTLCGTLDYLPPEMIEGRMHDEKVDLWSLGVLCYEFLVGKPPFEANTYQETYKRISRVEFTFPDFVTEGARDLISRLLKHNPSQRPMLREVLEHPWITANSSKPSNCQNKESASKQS
Put plainly: HiBiT assay, AURKA degradation. The format is cell-based. Also noted: key to Dmax (maximal degradation) AURKA: compounds with degradation less than 15% reported as “inactive”. As to conditions: 6 h treatment, MV4-11^AURKA-HiBiT cells; for DC50: read-out: DC50 (half-maximal degradation concentration) AURKA. The method, then:
as §1, §2, §3

Experiment [4] has as its target T3, TTK (MV4-11^HiBiT-TTK cells) (Homo sapiens, UniProt P33981).
T3 construct: expressed in transfected cells; host or cells: MV4-11, lentiviral transduction (pRRL-PGK-HiBiT entry vector)
T3 sequence (P33981 1-857): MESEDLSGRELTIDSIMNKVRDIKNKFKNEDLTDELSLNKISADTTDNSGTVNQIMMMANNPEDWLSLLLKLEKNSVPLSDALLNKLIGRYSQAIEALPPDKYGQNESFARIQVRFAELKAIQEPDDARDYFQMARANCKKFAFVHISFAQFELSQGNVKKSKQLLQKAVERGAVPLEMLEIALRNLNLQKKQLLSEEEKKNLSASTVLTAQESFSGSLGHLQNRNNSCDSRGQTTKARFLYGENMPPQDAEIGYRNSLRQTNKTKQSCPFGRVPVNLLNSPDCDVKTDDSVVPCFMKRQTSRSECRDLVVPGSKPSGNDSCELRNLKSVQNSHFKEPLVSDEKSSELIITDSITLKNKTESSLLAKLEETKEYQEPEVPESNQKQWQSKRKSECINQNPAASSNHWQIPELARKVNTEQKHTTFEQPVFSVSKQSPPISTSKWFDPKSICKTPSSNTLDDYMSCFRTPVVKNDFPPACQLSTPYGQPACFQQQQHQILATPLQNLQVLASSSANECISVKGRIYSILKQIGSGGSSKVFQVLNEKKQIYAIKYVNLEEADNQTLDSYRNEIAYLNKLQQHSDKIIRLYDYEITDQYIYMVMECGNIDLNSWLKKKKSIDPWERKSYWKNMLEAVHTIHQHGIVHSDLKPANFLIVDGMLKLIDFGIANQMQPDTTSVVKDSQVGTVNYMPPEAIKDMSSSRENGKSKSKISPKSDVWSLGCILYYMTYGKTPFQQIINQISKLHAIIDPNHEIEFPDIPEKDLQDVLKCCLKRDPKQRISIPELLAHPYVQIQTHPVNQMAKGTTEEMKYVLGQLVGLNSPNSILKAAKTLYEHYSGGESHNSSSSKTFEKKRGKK
Put plainly: HiBiT assay, TTK degradation. The format is cell-based. More on the design: key to Dmax (maximal degradation) TTK: compounds with degradation less than 15% reported as “inactive”. As to conditions: 6 h treatment, MV4-11^HiBiT-TTK cells; for DC50: read-out: DC50 (half-maximal degradation concentration) TTK. The method, then: as §1, §2, §3

T1 sequence (Q96GD4 1-345 isoform Q96GD4-5): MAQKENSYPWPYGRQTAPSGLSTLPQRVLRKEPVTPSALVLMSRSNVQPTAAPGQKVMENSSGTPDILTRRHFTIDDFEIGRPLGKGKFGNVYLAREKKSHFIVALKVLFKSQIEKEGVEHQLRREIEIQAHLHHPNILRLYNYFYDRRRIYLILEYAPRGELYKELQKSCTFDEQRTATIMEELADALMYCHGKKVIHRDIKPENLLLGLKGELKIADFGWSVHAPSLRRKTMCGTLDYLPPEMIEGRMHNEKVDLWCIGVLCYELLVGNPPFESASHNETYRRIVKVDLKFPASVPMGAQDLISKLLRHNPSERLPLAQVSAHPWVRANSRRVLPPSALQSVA

On to `COc1cc(N2CCNCC2)ccc1Nc1nc(Nc2ccccc2S(=O)(=O)C(C)C)c2nc[nH]c2n1` [SF2], for which the EC50 in experiment [1] (Homo sapiens) was 2060 nM. Also, the DC50 in experiment [2] was 4860 nM; in experiment [3], 1930 nM; in experiment [4], 1750 nM. The Dmax is 40.9% in experiment [2] (read-out: Dmax (maximal degradation) AURKB), 40.1% in experiment [3] (read-out: Dmax (maximal degradation) AURKA) and 29.6% in experiment [4] (read-out: Dmax (maximal degradation) TTK).

In the case of `Cc1ncsc1-c1ccc(CNC(=O)[C@@H]2C[C@@H](O)CN2C(=O)[C@@H](NC(=O)CCCC(=O)N2CCN(c3ccc(Nc4nc(NC5CCCCC5)c5nc[nH]c5n4)cc3)CC2)C(C)(C)C)cc1` [Compound 43], the EC50 in experiment [1] is 584 nM. Moreover, in experiment [2], the “Dmax (maximal degradation) AURKB” value turned out to be 33.80% and the DC50 worked out at 2280 nM. Further, in experiment [3], the “Dmax (maximal degradation) AURKA” value was 55% and 55.60%; the DC50 came out at 684 nM. Moreover, in experiment [4], the “Dmax (maximal degradation) TTK” value is reported as 32.70% and the DC50 was 1960 nM.

`Cc1ncsc1-c1ccc(CNC(=O)[C@@H]2C[C@H](O)CN2C(=O)[C@@H](NC(=O)COCCOCC(=O)N2CCN(c3ccc(Nc4nc(Nc5ccccc5S(=O)(=O)C(C)C)c5nc[nH]c5n4)cc3)CC2)C(C)(C)C)cc1` [Compound 51]: the EC50 in experiment [1] stood at 421 nM. In experiment [2], the “Dmax (maximal degradation) AURKB” value stood at 44.00% and the DC50 is 1160 nM. Besides, in experiment [3], the “DC50 (half-maximal degradation concentration) AURKA” value is “– (compounds with degradation less than 25% were not calculated and reported as “–”)”; the “Dmax (maximal degradation) AURKA” value was “inactive”. Also, in experiment [4], the “Dmax (maximal degradation) TTK” value is given as 73.95% and the DC50 amounted to 993 nM.

For `O=C1CCC(N2C(=O)c3cccc(NC(=O)CCCC(=O)N4CCN(c5ccc(Nc6nc(NC7CCCCC7)c7nc[nH]c7n6)cc5)CC4)c3C2=O)C(=O)N1` (stereo not drawn) [Compound 13], in experiment [1], the EC50 is 1210 nM. Besides, in experiment [2], the “Dmax (maximal degradation) AURKB” value is given as 30.60% and the DC50 amounted to 380 nM. In addition, in experiment [3], the “Dmax (maximal degradation) AURKA” value amounted to 68.40% and the DC50 came to 94 nM. Besides, in experiment [4], the “Dmax (maximal degradation) TTK” value came out at 27.70% and the DC50 stood at 3 nM.

As for `CC(C)S(=O)(=O)c1ccccc1Nc1nc(Nc2ccc(N3CCN(CC(=O)Nc4cccc5c4C(=O)N(C4CCC(=O)NC4=O)C5=O)CC3)cc2)nc2[nH]cnc12` (stereo not drawn) [Compound 26], the EC50 in experiment [1] stood at 57 nM. Further, in experiment [2], the “Dmax (maximal degradation) AURKB” value turned out to be 33.40% and the DC50 amounted to 2690 nM. Further, in experiment [3], the “Dmax (maximal degradation) AURKA” value was determined as 34.80% and the DC50 came to 119 nM. In addition, in experiment [4], the “Dmax (maximal degradation) TTK” value amounted to 28.90% and the DC50 was 205 nM.

Regarding `Cc1ncsc1-c1ccc(CNC(=O)[C@@H]2C[C@@H](O)CN2C(=O)[C@@H](NC(=O)CCC(=O)NCCCNC(=O)CCC(=O)N2CCN(c3ccc(Nc4nc(NC5CCCCC5)c5nc[nH]c5n4)cc3)CC2)C(C)(C)C)cc1` [Compound 56], in experiment [1], the EC50 was 6820 nM. Besides, in experiment [2], the “Dmax (maximal degradation) AURKB” value is reported as 29.10% and the DC50 amounted to 2560 nM. Further, in experiment [3], the “Dmax (maximal degradation) AURKA” value is 39.50% and the DC50 turned out to be 6500 nM. Also, in experiment [4], the “Dmax (maximal degradation) TTK” value was determined as 34.20% and the DC50 is 1890 nM.

In the case of `COc1cc(N2CCN(C(=O)CNC(=O)CCCC(=O)Nc3cccc4c3C(=O)N(C3CCC(=O)NC3=O)C4=O)CC2)ccc1Nc1nc(Nc2ccccc2S(=O)(=O)C(C)C)c2nc[nH]c2n1` (stereo not drawn) [Compound 21], the “EC50 (concentration that decreases cell viability by 50%)” value in experiment [1] was “— (compounds with decrease of cell viability less than 50% were not calculated and reported as “—”)”. Moreover, in experiment [2], the “DC50 (half-maximal degradation concentration) AURKB” value is “– (compounds with degradation less than 25% were not calculated and reported as “–”)”; the “Dmax (maximal degradation) AURKB” value was “inactive”. Moreover, in experiment [3], the “Dmax (maximal degradation) AURKA” value was determined as 59.30% and the DC50 amounted to 56 nM. For the same compound, in experiment [4], the “Dmax (maximal degradation) TTK” value is given as 41.90% and the DC50 amounted to 26 nM.

Consider `COc1cc(N2CCC(OCC(=O)NCCNc3cccc4c3C(=O)N(C3CCC(=O)NC3=O)C4=O)CC2)ccc1Nc1nc(Nc2ccccc2S(=O)(=O)C(C)C)c2nc[nH]c2n1` (stereo not drawn) [Compound 34], for which the “EC50 (concentration that decreases cell viability by 50%)” value in experiment [1] is “— (compounds with decrease of cell viability less than 50% were not calculated and reported as “—”)”. In experiment [2], the “DC50 (half-maximal degradation concentration) AURKB” value is “– (compounds with degradation less than 25% were not calculated and reported as “–”)”; the “Dmax (maximal degradation) AURKB” value is “inactive”. In addition, in experiment [3], the “DC50 (half-maximal degradation concentration) AURKA” value was “– (compounds with degradation less than 25% were not calculated and reported as “–”)”; the “Dmax (maximal degradation) AURKA” value was “inactive”. Moreover, in experiment [4], the “DC50 (half-maximal degradation concentration) TTK” value is “– (compounds with degradation less than 25% were not calculated and reported as “–”)”; the “Dmax (maximal degradation) TTK” value is “inactive”.

As for `CC(C)S(=O)(=O)c1ccccc1Nc1nc(Nc2ccc(N3CCN(C(=O)CCC(=O)NCCNc4cccc5c4C(=O)N(C4CCC(=O)NC4=O)C5=O)CC3)cc2)nc2[nH]cnc12` (stereo not drawn) [Compound 30], the EC50 in experiment [1] stood at 405 nM. Also, in experiment [2], the “DC50 (half-maximal degradation concentration) AURKB” value was “– (compounds with degradation less than 25% were not calculated and reported as “–”)”; the “Dmax (maximal degradation) AURKB” value worked out at 19.90%. In addition, in experiment [3], the “Dmax (maximal degradation) AURKA” value is listed as 49.10% and the DC50 worked out at 17 nM. In experiment [4], the “Dmax (maximal degradation) TTK” value is given as 27.20% and the DC50 is 468 nM.
